Laboratory results published in US20240000741A1, “ALL-TRANS RETINOIC ACID ENHANCES RADIOTHERAPY AND OVERCOMES IMMUNE SUPPRESSION FOR CANCER THERAPY” (The University of Chicago, priority 2022, published 2024).

Columns and labels:
[1] = tested on: immune cells in tumors; assay: Flow cytometric analysis of immune cells in treated MC38 tumors and draining lymph nodes; assay type: in vivo, mouse
From the text: Single cell suspensions were obtained as previously described (40). Cells were blocked with anti-Fc receptor (2.4 G2, BioXCell, Lebanon, New Hampshire, United States of America) and stained for live/dead with Zombie UV, followed staining using antibodies against CD45, CD4, CD8, NK1.1, CD11b, CD11c, Ly6C, Ly6G, F4/80, CD44, CD62L.
The following antibodies were used for high-dimensional flow analysis: BV605-CX3CR, BV650-XCR1, PB-CD11 b, BV510-CD24, BV711-CD64, BV785-F4/80, AF532-CD45, PerCP-Cy5.5-1-A/I-E, PerCP-eFluor710-Flt3, PE-Cy7-CD11c, FITC-Ly6C, PE-iNOS, PE-Dazzle 594-CD103, APC-TNF, Alexa Fluor 700-CD206, and APC-Cy7-SIRPα. For IFN-γ and GrzB (515407) staining, cells were cultured with PMA/ionomycin and brefeldin A (423303, BioLegend, San Diego, California, United States of America) for 6 hours followed by intracellular staining using BD fix/perm intracellular staining kit (554714, BD Biosciences, Franklin Lakes, New Jersey, United States of America). For TNF-α staining, cells were stimulated by PMA/ionomycin and brefeldin A for 4 hours followed by intracellular staining. Foxp3 (17-5773-82, Thermo Fisher Scientific, Waltham, Massachusetts, United States of America) Ki67 (Clone 16-A8, BioLegend, San Diego, California, United States of America) and iNOS staining were performed following Foxp3 staining protocol (00-5523-00, Thermo Fisher Scientific, Waltham, Massachusetts, United States of America). Cells were analyzed on Fortessa flow cytometer (BD Biosciences, Franklin Lakes, New Jersey, United States of America) or on Aurora spectral cytometer (Cytek Biosciences, Fremont, California, United States of America. Data was analyzed with software sold under the tradename FLOWJO software (FlowJo LLC, Ashland, Oregon, United States of America).
Immune cells in tumors 4 days after the start of the treatment were examined. […] In CD11b+ subsets, Ly6C^+ cells, including CD11c^+Ly6C^+ cells, increased by 4-fold in tumors receiving the combination treatment. […] Next, the DC population was examined by analyzing high-dimensional flow cytometry data using traditional dendritic cell (DC) markers. Monocyte-derived dendritic cells (MoDCs) (Ly6C^+CD11 b^+CD11c^+ MHC-II^+CXCR3^+CD64^+SIRPα^+CD206^− cells), a low level of type two dendritic cells (DC2s) (Ly6C^−CD11b^+CD11c^+MHC-11^+CXCR3^+CD64^−SIRPα+CD206^−) and a very low level of type one dendritic cells (DC1s) (Ly6C^−CD11b^−CD11c^+MHC-11^+ CXCR1^+CD103^+CD64^−) were detected in IR and RA treated tumors.

[2] = tested on: Renca (a renal cancer tumor model); assay: Renca tumor growth after IR and RA; assay type: in vivo, mouse; conditions: IR and RA combination compared with single treatments
Protocol: 1×10^6 MC38, B16/F1, Renca or CT26 cells were subcutaneously implanted into flanks of mice. Tumors were irradiated using a Phillips IR250 orthovoltage X-ray generator (Phillips, Amsterdam, the Netherlands) operating at 250 kV 15 mA. Subcutaneous local tumors were irradiated by shielding bodies with a cylindrical lead cover with only flank tumors exposed for radiation. ATRA (400 μg/mice/day) was administered by oral gavage for 10 days. For the two-tumor model, 1×10^6 and 0.7×10^6 MC38 cells were subcutaneously implanted into the right and left flank of mice respectively. […] Tumors were measured along two diameters (length and width) and depth twice weekly and volumes were calculated as length×width×depth/2. For CD8 and CD4 T cell depletion experiments, 200 μg antibodies were injected i.p. on day 0, 2, 5 and 8 after radiation. Anti-CD11b antibody was injected i.p. every two days starting 1 day before radiation. Anti-PD-L1 antibody was administered i.p. on day 0, 3, and 7 after radiation at 200 μg/mouse. Anti-IFN-γ was administered i.p. at 500 μg/mouse every 7 days. Anti-NK1.1 antibody was administered via i.p. at 25 μg/mouse every 3 days for 3 doses. Anti-GM-CSF antibody was given by i.p. injection at 250 μg/mouse every 2 days. FTY720 was delivered via gavage at 20 μg per dose every day for 7 days. […]

[3] = IR and RA treatment, high-dimensional flow cytometry
[4] = IR+RA vs single treatment, day 8
[5] = IR+RA, 4 days after start of treatment
[6] = after IR+RA combination treatment

CC1=C(/C=C/C(C)=C/C=C/C(C)=C/C(=O)O)C(C)(C)CCC1 [RA, all-trans retinoic acid]
expression of TNF-α in CD11b+ cells ([1]; IR and RA combination treatment): Elevated expression
DC1 population [1, 3]: not changed
DC2 population [1, 3]: not changed
level of monocyte-derived dendritic cells (MoDCs) [1, 3]: significantly induced
increase of CD8+ T cells infiltration in tumors ([1]; IR+RA compared to IR treated tumors, eight days after treatment commencement, p<0.05): about 3 fold
ratio of CD8+ IFN-γ+ cells to Treg ([1]; IR+RA compared to any single treatment, day 8): increased significantly
percentage of CD8+ IFN-γ+ cells in tumors and draining lymph nodes [1, 4]: increased
percentage of CD8+GzmB+ cells in tumors and draining lymph nodes [1, 4]: increased
CD11b+iNOS+ cells in tumors [1, 5]: 11.1%
increase of Ly6C+ cells, including CD11c+Ly6C+ cells, in CD11b+ subsets [1, 5]: 4 fold
percentage of CD4+ T cells in tumors ([1]; IR+RA, day 4 post treatment): no significant change
percentage of CD8+ T cells in tumors ([1]; IR+RA, day 4 post treatment): only a marginal change
percentage of Foxp3+ (Treg) cells in CD4+ T cells ([1]; IR+RA, day 8): decreased
CD11b+CD11c+iNOS+TNF-α+ cells in tumors ([1]; IR+RA, day 8, compared to any other treatment group): more
number of iNOS-producing Inf-MACs in tumors ([1]; IR+RA, tumors in CCR2 KO hosts vs WT mice): significantly lower
CD11b+iNOS+ cells in tumors ([1]; RA alone, 4 days after start of treatment): 1.8%
Inf-MAC induction by IR plus RA ([1]; Rag1−/− hosts given IFN-γ−/− T cells compared to WT T cells): significantly abrogated
Ki67+ proliferation in DLN, CD8+ and CD4+ [1, 6]: increased
percentage of naïve T cells (CD62L+CD44−) in DLN, CD8+ and CD4+ [1, 6]: decreased
Renca tumor growth [2]: significant benefit
